Holding throughout (experiment): cells
What all share (assay type): cell-based

Experiment [1] deals with influenza A virus minigenome (PB2, PB1, PA, NP) RNP_Alaska in 293T cells. The following applies: HEK-293T, 48 h, read-out: RNP_Alaska EC50.
Experiment [2] has as its system influenza A virus minigenome (PB2, PB1, PA, NP) RNP_CAL in 293T cells. The following applies: HEK-293T, 48 h, read-out: RNP_CAL_EC50.
The subject of experiment [3] is influenza virus minigenome (PB2, PB1, PA, NP) RNP_Hubei in 293T cells. Particulars: unidentified influenza virus, HEK-293T, 48 h, read-out: RNP_Hubei EC50.

SMILES strings stand for the structures.

For the compound `O=c1cnn2c(c1O)-c1nccn1CC2C(c1cccc(F)c1)c1cccc(F)c1` (stereo not shown) [Example 2, 6-(bis(3-fluorophenyl)methyl)-11-hydroxy-5,6-dihydro-10H-imidazo[2′,1′:3,4]pyrazino[1,2-b]pyridazin-10-one], the results for the EC50 in experiment [1], in experiment [2] and in experiment [3] were 110 nM, 110 nM and 90 nM, respectively.

As for `COC(=O)OCOc1c2n(ncc1=O)[C@@H](C(c1ccc(F)cc1)c1ccc(F)cc1)Cn1ccnc1-2` [Example 88, (S)-((6-(bis(4-fluorophenyl)methyl)-10-oxo-5,6-dihydro-10H-imidazo[2′,1′:3,4]pyrazino[1,2-b]pyridazin-11-yl)oxy)methyl methyl Carbonate], the EC50 in experiment [1] was determined as 32 nM; in experiment [2] it was 42 nM; in experiment [3], 89 nM.

`O=c1cnn2c(c1O)-c1nccn1C[C@@H]2[C@H](c1ccc(F)cc1)c1ccc(C(F)(F)F)nc1` [Example 20, (S)-6-((R)-(4-fluorophenyl)(6-(trifluoromethyl)pyridin-3-yl)methyl)-11-hydroxy-5,6-dihydro-10H-imidazo[2′,1′:3,4]pyrazino[1,2-b]pyridazin-10-one]: the EC50 in experiment [1] turned out to be 690 nM; in experiment [2] it was 720 nM; in experiment [3], 740 nM.

Turning to `O=c1cnn2c(c1O)-c1nccn1C[C@@H]2[C@@H](c1ccccc1)c1ccc(F)cc1` [Example 18, (S)-6-((S)-(4-fluorophenyl)(phenyl)methyl)-11-hydroxy-5,6-dihydro-10H-imidazo[2′,1′:3,4]pyrazino[1,2-b]pyridazin-10-one], the EC50 in experiment [1] turned out to be 130 nM; in experiment [2], 130 nM; in experiment [3], 160 nM.

`N#Cc1cccc([C@H](c2cccc(F)c2)[C@H]2Cn3ccnc3-c3c(O)c(=O)cnn32)c1` [Example 46, 3-((R)-(3-fluorophenyl)((S)-11-hydroxy-10-oxo-5,6-dihydro-10H-imidazo[2′,1′:3,4]pyrazino[1,2-b]pyridazin-6-yl)methyl)benzonitrile]: the EC50 stood at 150 nM in experiment [1], 64 nM in experiment [2] and 190 nM in experiment [3].

With `CCc1cnc2n1C[C@H](C(c1ccccc1)c1ccccc1)n1ccc(=O)c(O)c1-2` [Example 9, (S)-6-benzhydryl-3-ethyl-11-hydroxy-5H-imidazo[1,2-a]pyrido[2,1-c]pyrazin-10(6H)-one], the EC50 stood at 850 nM in experiment [1], 580 nM in experiment [2] and 590 nM in experiment [3].

Take `O=c1cnn2c(c1O)-c1nccn1CC2C(c1ccc(F)cc1)c1ccc(F)cc1` (stereo not shown) [Example 12, 6-(bis(4-fluorophenyl)methyl)-11-hydroxy-5H-imidazo[2′,1′:3,4]pyrazino[1,2-b]pyridazin-10(6H)-one]: the EC50 in experiment [1] was 70 nM; in experiment [2], 800 nM; in experiment [3], 60 nM.

For `O=c1cnn2c(c1O)-c1nccn1C[C@@H]2[C@H](c1ccc(F)cc1)c1ccc(F)cc1Br` [Example 39, (S)-6-((R)-(2-bromo-4-fluorophenyl)(4-fluorophenyl)methyl)-11-hydroxy-5,6-dihydro-10H-imidazo[2′,1′:3,4]pyrazino[1,2-b]pyridazin-10-one], the results for the EC50 in experiment [1], in experiment [2] and in experiment [3] were 25 nM, 33 nM and 53 nM, respectively.

On to `COCc1cnc2n1C[C@H](C(c1ccccc1)c1ccccc1)n1ccc(=O)c(O)c1-2` [Example 56, (S)-6-benzhydryl-11-hydroxy-3-(methoxymethyl)-5H-imidazo [1,2-a]pyrido[2,1-c]pyrazin-10(6H)-one], for which the EC50 in experiment [1] amounted to 280 nM; in experiment [2] it was 92 nM; in experiment [3], 270 nM.

Take `N#Cc1ccc([C@H](c2ccc(F)cc2)[C@H]2Cn3ccnc3-c3c(O)c(=O)cnn32)cc1` [Example 45, 4-((R)-(4-fluorophenyl)((S)-11-hydroxy-10-oxo-5,6-dihydro-10H-imidazo[2′,1′:3,4]pyrazino[1,2-b]pyridazin-6-yl)methyl)benzonitrile]: the EC50 was found to be 76 nM in experiment [1], 42 nM in experiment [2] and 160 nM in experiment [3].

On to `O=c1ccn2c(c1O)-c1nccn1C(C1CC1)N2C(c1ccccc1)c1ccccc1` (stereo not shown) [Example 73, 6-benzhydryl-5-cyclopropyl-11-hydroxy-5,6-dihydro-10H-imidazo[1,2-d]pyrido[2,1-f][1,2,4]triazin-10-one], for which the EC50 was 390 nM in experiment [1] and 170 nM in experiment [2].

In the case of `Cc1cnc2n1C[C@H](C(c1ccccc1)c1ccccc1)n1ccc(=O)c(O)c1-2` [Example 13, (S)-6-benzhydryl-11-hydroxy-3-methyl-5H-imidazo[1,2-a]pyrido[2,1-c]pyrazin-10(6H)-one], the EC50 worked out at 570 nM in experiment [1], 310 nM in experiment [2] and 300 nM in experiment [3].

`O=c1cnn2c(c1O)-c1nccn1C[C@@H]2[C@@H](c1ccc(F)cc1)c1cccc(F)c1` [Example 24, (S)-6-((S)-(3-fluorophenyl)(4-fluorophenyl)methyl)-11-hydroxy-5,6-dihydro-10H-imidazo[2′,1′:3,4]pyrazino[1,2-b]pyridazin-10-one]: the EC50 in experiment [1] came out at 52 nM; in experiment [2], 36 nM; in experiment [3], 59 nM.

`O=C(c1cnc2n1C[C@H](C(c1ccccc1)c1ccccc1)n1ccc(=O)c(O)c1-2)N1CCCC1` [Example 72, (S)-6-benzhydryl-11-hydroxy-3-(pyrrolidine-1-carbonyl)-5,6-dihydro-10H-imidazo[1,2-a]pyrido[2,1-c]pyrazin-10-one]: the figures for the EC50 in experiment [1], in experiment [2] and in experiment [3] were 3000 nM, 1700 nM and 5500 nM, respectively.

For `N#Cc1ccccc1[C@H](c1ccc(F)cc1)[C@H]1Cn2ccnc2-c2c(O)c(=O)cnn21` [Example 44, 2-((S)-(4-fluorophenyl)((S)-11-hydroxy-10-oxo-5,6-dihydro-10H-imidazo[2′,1′:3,4]pyrazino[1,2-b]pyridazin-6-yl)methyl)benzonitrile], the results for the EC50 in experiment [1], in experiment [2] and in experiment [3] were 550 nM, 300 nM and 310 nM, respectively.

For `CC(C)C(=O)Oc1c2n(ncc1=O)[C@@H](C(c1ccc(F)cc1)c1ccc(F)cc1)Cn1ccnc1-2` [Example 86, (S)-6-(bis(4-fluorophenyl)methyl)-10-oxo-5,6-dihydro-10H-imidazo[2′,1′:3,4]pyrazino[1,2-b]pyridazin-11-yl Isobutyrate], the EC50 stood at 30 nM in experiment [1], 21 nM in experiment [2] and 47 nM in experiment [3].

For `CS(=O)(=O)c1cccc([C@H](c2ccc(F)cc2)[C@H]2Cn3ccnc3-c3c(O)c(=O)cnn32)c1` [Example 42, (S)-6-((S)-(4-fluorophenyl)(3-(methylsulfonyl)phenyl)methyl)-11-hydroxy-5,6-dihydro-10H-imidazo[2′,1′:3,4]pyrazino[1,2-b]pyridazin-10-one], the EC50 in experiment [1] was 3600 nM; in experiment [2], 2800 nM; in experiment [3], 3800 nM.

Regarding `O=c1ccn2c(c1O)-c1ncc(Cl)n1C[C@@H]2C(c1ccccc1)c1ccccc1` [Example 5, (S)-6-Benzhydryl-3-chloro-11-hydroxy-5,6-dihydro-10H-imidazo[1,2-a]pyrido[2,1-c]pyrazin-10-one], the figures for the EC50 in experiment [1], in experiment [2] and in experiment [3] were 220 nM, 100 nM and 180 nM, respectively.

For `O=c1ccn2c(c1O)-c1ncsc1CN2C(c1ccccc1)c1ccccc1` [Example 81, 5-benzhydryl-10-hydroxy-4,5-dihydro-9H-pyrido[1,2-b]thiazolo[4,5-d]pyridazin-9-one], the EC50 in experiment [1] stood at 2200 nM; in experiment [2], 7000 nM.

(Values after patent US11453677B2 (priority 2016, dated 2022).)
